Experiments:
[1] = test system: MHH-CALL4 cells; experiment: Immunoblotting of MHH-CALL4 lysates; assay type: cell-based, human; conditions: 1 μM, 2 hr
[2] = test system: CRLF2-rearranged PDXs; experiment: PDX cells ex vivo, proliferation and apoptosis; assay type: cell-based, human; conditions: 1 μM; B-ALL-X2, -X3, -X4, -X6
[3] = test system: Eμ-CRLF2/Eμ-Jak2 R683G/Ts1Rhr/Pax5+/− (line 2539p) B-ALL; experiment: Transplanted transgenic murine B-ALL model; conditions: 14 days of treatment from day 15 after transplant
[4] = test system: MHH-CALL4 cells; experiment: Synergy screen with B-ALL chemotherapies; assay type: cell-based, human; conditions: isobologram, combination index
[5] = Metabolic stability; assay type: in vitro ADME
[6] = target: T1, RET (Homo sapiens, UniProt P07949); experiment: Off-target activity compared with BBT594
T1 sequence (P07949 29-1114, species assumed): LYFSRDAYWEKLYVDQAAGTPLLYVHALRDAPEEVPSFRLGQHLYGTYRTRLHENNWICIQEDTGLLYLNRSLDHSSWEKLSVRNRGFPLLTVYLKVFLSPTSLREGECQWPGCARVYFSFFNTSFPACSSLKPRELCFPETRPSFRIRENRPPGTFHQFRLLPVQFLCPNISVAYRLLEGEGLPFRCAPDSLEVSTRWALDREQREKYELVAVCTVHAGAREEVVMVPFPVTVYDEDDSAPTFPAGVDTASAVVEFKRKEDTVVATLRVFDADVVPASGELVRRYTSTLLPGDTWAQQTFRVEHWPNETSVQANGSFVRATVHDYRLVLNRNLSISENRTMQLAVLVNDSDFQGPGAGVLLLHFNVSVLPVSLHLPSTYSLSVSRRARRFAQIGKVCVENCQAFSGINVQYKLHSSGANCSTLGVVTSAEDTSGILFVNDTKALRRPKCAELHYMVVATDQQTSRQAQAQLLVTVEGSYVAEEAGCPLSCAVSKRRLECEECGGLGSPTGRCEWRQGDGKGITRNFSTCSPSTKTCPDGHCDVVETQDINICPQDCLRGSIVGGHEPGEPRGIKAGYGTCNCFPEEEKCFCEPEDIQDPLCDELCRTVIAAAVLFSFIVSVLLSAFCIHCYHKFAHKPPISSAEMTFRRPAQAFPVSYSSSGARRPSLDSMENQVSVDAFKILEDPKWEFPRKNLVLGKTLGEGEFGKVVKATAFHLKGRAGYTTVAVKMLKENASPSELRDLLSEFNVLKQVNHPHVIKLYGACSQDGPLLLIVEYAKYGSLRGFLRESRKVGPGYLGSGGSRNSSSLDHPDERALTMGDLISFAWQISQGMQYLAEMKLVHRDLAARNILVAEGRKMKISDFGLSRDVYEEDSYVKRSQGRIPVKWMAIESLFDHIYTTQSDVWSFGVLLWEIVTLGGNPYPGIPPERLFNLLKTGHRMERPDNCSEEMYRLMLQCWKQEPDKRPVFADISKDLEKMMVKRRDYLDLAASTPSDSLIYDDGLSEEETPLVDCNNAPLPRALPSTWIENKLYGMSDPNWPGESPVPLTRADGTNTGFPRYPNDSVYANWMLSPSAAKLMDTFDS

[7] = test system: Ba/F3-CRLF2 cells expressing JAK2 R683G/L884P; experiment: Immunoblotting of Ba/F3-CRLF2 JAK2 R683G/L884P lysates; assay type: cell-based; conditions: concentrations up to 200 nM, 2 hr
[8] = test system: BALB/c mice; experiment: rhEpo-induced splenomegaly and reticulocytosis, four days; assay type: in vivo; conditions: 30 mg/kg/day, sacrificed day 5
[9] = test system: Ba/F3 cells expressing TEL-JAK2; experiment: Ba/F3 TEL-JAK2 growth inhibition; assay type: cell-based
[10] = target: FLT3 (Homo sapiens, UniProt P36888); experiment: Off-target activity compared with BBT594
[11] = test system: VEGFR family kinases; experiment: Cell-based kinase selectivity assay
[12] = Pharmacokinetics; assay type: in vivo, mice
[13] = test system: PDGFR family kinases; experiment: Cell-based kinase selectivity assay
[14] = test system: wild-type mice; experiment: Tolerability in wild-type mice; assay type: in vivo; conditions: 30 mg/kg/day for >6 weeks
[15] = target: BRAF (Homo sapiens, UniProt P15056); experiment: Cell-based kinase selectivity assay; conditions: follow-up of kinome panel hit
Chain of BRAF (P15056 whole entry, species assumed): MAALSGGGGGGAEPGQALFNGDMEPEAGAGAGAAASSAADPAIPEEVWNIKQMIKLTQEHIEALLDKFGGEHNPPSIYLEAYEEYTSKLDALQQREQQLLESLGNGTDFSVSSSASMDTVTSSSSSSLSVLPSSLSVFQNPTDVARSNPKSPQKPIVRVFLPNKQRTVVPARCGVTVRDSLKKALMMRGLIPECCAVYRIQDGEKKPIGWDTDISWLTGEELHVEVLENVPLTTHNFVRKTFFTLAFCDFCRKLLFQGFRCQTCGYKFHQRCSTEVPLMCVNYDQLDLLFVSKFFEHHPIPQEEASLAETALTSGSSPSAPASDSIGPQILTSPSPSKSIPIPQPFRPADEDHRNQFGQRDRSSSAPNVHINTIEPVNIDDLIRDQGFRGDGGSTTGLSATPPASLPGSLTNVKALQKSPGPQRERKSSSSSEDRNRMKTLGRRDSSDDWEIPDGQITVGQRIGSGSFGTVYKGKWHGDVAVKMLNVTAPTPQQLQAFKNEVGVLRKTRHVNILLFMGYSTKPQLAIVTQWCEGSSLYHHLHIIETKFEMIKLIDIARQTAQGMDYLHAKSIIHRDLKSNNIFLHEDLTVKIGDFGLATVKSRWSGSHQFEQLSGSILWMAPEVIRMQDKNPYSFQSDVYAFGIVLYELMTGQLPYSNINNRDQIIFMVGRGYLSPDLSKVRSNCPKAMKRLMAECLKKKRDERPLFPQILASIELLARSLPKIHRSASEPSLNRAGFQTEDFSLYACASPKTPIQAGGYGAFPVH

[16] = test system: panel consisting of over 400 kinases; experiment: In vitro kinase selectivity panel; assay type: biochemical; conditions: 100 nM; including JAK2 and TYK2
[17] = test system: Ba/F3-CRLF2 cells expressing JAK2 R683G or JAK2 R683G/L884P; experiment: Proliferation, L884P versus no L884P, JAK2 R683G; assay type: cell-based; conditions: 48 hr
[18] = test system: pSTAT5 in the spleen and bone marrow; experiment: rhEpo-induced pSTAT5 in murine model of polycythemia; assay type: in vivo, mice
[19] = target: KIT (Homo sapiens, UniProt P10721); experiment: Cell-based kinase selectivity assay
Chain of KIT (P10721 26-976, species assumed): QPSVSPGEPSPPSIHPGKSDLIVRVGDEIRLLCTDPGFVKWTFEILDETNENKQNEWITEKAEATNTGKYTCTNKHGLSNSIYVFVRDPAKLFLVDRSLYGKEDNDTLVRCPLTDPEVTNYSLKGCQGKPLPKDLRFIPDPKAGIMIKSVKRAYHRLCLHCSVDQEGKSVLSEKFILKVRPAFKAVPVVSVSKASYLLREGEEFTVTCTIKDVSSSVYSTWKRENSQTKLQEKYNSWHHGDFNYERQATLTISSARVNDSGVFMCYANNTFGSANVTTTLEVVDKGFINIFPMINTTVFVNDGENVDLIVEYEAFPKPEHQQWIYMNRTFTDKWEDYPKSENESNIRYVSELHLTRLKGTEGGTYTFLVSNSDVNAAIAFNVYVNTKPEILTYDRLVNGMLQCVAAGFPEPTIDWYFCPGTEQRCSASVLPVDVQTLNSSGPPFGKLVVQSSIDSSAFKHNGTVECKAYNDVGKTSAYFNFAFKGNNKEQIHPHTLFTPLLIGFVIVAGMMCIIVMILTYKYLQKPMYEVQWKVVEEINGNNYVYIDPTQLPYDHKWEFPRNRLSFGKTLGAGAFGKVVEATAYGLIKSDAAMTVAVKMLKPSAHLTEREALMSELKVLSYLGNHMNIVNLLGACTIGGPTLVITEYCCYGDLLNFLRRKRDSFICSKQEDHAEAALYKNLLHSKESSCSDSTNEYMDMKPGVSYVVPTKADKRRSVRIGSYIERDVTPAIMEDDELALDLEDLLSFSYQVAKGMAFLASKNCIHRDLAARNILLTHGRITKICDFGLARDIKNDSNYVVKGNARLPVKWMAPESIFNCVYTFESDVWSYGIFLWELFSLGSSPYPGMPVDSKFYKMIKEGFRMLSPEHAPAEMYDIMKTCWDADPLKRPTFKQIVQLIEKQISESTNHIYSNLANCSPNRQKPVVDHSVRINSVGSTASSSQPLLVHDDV

[20] = test system: Ba/F3-CRLF2/JAK2 R683G cells; experiment: Immunoblotting of Ba/F3-CRLF2/JAK2 R683G lysates; assay type: cell-based; conditions: 2 hr exposure
[21] = target: activated (phosphorylated) JAK2 kinase (Homo sapiens, UniProt O60674); experiment: JAK2 biochemical kinase assay
Chain of activated (phosphorylated) JAK2 kinase (O60674 808-1132): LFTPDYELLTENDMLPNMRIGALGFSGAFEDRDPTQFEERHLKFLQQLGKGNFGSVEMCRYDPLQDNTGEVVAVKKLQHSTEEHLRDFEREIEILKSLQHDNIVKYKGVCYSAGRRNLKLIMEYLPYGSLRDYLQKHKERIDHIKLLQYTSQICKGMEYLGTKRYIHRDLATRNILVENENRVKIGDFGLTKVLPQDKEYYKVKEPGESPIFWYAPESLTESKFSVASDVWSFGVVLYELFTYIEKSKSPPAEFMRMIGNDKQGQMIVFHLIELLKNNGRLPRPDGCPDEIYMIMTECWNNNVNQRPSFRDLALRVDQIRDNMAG

[22] = test system: CRLF2-rearranged PDXs; experiment: Dynamic BH3 profiling of PDX cells ex vivo; assay type: cell-based, human; conditions: 300 nM, 16 hr ex vivo
[23] = Passive permeability; assay type: in vitro ADME
[24] = test system: Ba/F3-CRLF2 cells transduced with a library of JAK2 R683G; experiment: Random mutagenesis screen for resistance; assay type: cell-based; conditions: 3 μM inhibitor, absence of cytokines
[25] = test system: Ba/F3-EpoR cells expressing JAK2 V617F or JAK2 V617F/L884P; experiment: Proliferation, L884P versus no L884P, JAK2 V617F; assay type: cell-based; conditions: 48 hr
[26] = test system: MHH-CALL4 cells; experiment: MHH-CALL4 cell viability; assay type: cell-based, human; conditions: 72 hr
[27] = target: T1, RET; experiment: Cell-based kinase selectivity assay; conditions: follow-up of kinome panel hit
[28] = target: BCR-ABL (Homo sapiens, UniProt P00519+P11274); experiment: Off-target activity compared with BBT594
Chain of BCR-ABL (P00519 242-493 limits assumed, one chain of several): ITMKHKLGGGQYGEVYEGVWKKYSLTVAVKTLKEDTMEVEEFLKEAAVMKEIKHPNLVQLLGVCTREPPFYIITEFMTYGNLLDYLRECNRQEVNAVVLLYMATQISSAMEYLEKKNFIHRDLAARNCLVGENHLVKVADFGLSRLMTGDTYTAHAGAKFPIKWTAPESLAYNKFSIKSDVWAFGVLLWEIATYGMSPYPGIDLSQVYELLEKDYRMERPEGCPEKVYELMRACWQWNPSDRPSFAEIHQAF

[29] = target: ABL (Homo sapiens, UniProt P00519); experiment: Cell-based kinase selectivity assay; conditions: follow-up of kinome panel hit
Chain of ABL (P00519 whole entry, species assumed): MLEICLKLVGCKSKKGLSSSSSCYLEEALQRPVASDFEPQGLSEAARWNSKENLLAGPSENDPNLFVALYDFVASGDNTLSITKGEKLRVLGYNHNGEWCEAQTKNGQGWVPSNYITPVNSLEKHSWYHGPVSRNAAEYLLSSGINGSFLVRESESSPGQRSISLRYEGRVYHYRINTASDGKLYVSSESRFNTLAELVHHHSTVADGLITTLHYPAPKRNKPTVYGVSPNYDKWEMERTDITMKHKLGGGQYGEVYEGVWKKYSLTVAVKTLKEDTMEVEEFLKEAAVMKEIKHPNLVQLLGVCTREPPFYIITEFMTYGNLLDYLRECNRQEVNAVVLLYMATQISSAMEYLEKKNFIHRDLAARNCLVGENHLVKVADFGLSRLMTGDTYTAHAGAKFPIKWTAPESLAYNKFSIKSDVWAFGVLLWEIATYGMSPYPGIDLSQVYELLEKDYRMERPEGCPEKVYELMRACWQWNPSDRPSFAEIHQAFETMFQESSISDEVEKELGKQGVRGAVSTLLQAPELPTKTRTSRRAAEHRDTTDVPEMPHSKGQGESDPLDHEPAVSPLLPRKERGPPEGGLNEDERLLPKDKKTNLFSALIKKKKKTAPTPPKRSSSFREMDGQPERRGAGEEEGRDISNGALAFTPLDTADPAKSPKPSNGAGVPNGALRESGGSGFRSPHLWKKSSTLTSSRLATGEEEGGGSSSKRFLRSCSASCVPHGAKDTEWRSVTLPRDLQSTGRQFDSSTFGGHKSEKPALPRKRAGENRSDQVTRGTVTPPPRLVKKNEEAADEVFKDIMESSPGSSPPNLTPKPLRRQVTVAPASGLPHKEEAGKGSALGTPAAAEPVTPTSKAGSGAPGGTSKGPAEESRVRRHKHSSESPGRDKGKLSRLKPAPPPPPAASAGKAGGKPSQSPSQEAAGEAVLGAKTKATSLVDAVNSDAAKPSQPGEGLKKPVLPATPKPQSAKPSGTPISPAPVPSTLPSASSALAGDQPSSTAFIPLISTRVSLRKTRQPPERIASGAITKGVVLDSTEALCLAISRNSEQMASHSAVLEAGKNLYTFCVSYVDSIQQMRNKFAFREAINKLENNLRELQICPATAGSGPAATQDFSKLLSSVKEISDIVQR

[30] = test system: CRLF2-rearranged B-ALL PDXs
[31] = Drug concentration within the spleen, rhEpo model; assay type: in vivo, mice; conditions: oral 30 mg/kg/day
[32] = target: JAK2 (Homo sapiens, UniProt O60674); experiment: JAK2-driven cellular assays; assay type: cell-based
Chain of JAK2 (O60674 840-1132 limits assumed): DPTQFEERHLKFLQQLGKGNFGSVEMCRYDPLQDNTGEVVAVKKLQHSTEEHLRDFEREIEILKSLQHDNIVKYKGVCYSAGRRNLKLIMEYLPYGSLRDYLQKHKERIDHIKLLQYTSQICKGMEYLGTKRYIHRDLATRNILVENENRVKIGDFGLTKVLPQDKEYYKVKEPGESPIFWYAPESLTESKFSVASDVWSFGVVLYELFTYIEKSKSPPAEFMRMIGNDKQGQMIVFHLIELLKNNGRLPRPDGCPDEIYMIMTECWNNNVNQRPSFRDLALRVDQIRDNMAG

With `N#CC[C@H](C1CCCC1)n1cc(-c2ncnc3[nH]ccc23)cn1` [ruxolitinib] the “JAK2 activation loop phosphorylation” value [1] was “hyperphosphorylation”, the apoptosis ex vivo [2] was “little or no effect” and the proliferation ex vivo [2] was “little or no effect”.

In the case of `C[C@@H]1C[C@H]2[C@@H]3CCC4=CC(=O)C=C[C@]4(C)[C@@]3(F)[C@@H](O)C[C@]2(C)[C@@]1(O)C(=O)CO` [dexamethasone, reference compound], the “overall survival compared to vehicle” value [3] is reported as “increased overall survival” and the “synergy with CHZ868” value [4] is reported as “most notable synergy”.

For `CC(=O)Nc1cc(Oc2ccc3c(nc(Nc4ccc(F)cc4F)n3C)c2C)ccn1` [CHZ868], the metabolic stability [5] was “good”, the “JAK2 activation loop phosphorylation” value [1] was “suppressed JAK2 phosphorylation” and the “RET inhibition compared with BBT594” value [6] was “significantly reduced”. The “suppressive effects on pJAK2, pSTAT5, and c-Myc in presence of L884P” value [7] was “abrogated”, the “overall survival compared to vehicle” value [3] was “increased overall survival” and the WBC count [8] was “did not affect”. The “increase in reticulocyte count induced by rhEpo” value [8] was “blocked”, the “splenomegaly induced by rhEpo” value [8] was “completely blocked” and the “activity in Ba/F3 TEL-JAK2 cells” value [9] was “highly active”. The “FLT3 inhibition compared with BBT594” value [10] was “significantly reduced”, the “activity against VEGFR family kinases in the cellular setting” value [11] was “low nanomolar activity” and the apoptosis ex vivo [2] was “induced apoptosis”. For the same compound, the proliferation ex vivo [2] was “consistently blocked proliferation”, the “blood t1/2” value ([12]; mice) was 1 h and the blood clearance ([12]; mouse, in vivo) was “moderate”. The oral bioavailability ([12]; mouse, in vivo, po) was “good”, the “activity against PDGFR family kinases in the cellular setting” value [13] was “low nanomolar activity” and the “effects on body weight, peripheral blood cell counts, bone marrow cellularity, fractions of hematopoietic progenitors” value [14] was “no significant effects”. For the same compound, the spleen weights [14] was “trends towards reduced”, the serum erythropoietin levels ([14]; trend) was “elevated” and the “activity against BRAF in the cellular setting” value [15] was “not corroborated”. For the same compound, the “number of kinases with activity” value [16] was 26 kinases, the “IC50 fold-shift for cells expressing L884P compared to cells without L884P” value (from here on “IC50 fold-shift … to cells without L884P”) [17] was 4 fold and the “induction of pSTAT5 by rhEpo” value ([18]; oral 30 mg/kg/day, administered 2 hr prior to sampling) was “completely blocked”. The “time for which rhEpo induction of pSTAT5 remained attenuated” value ([18]; spleen and bone marrow) was 48–72 hr, the “activity against KIT in the cellular setting” value [19] was “low nanomolar activity” and the “pJAK2 and pSTAT5 by immunoblotting” value [20] was “completely abrogated”. The “inhibitory activity in enzymatic assays” value ([21]; activated (phosphorylated) JAK2 kinase) was “modest inhibitory activity”, the “JAK2 inhibitory activity, fold improved over BBT594” value ([21]; enzymatic and cell-based assays, Figure 1B) was 3–9 fold and the “cytochrome C release upon exposure to BIM compared to vehicle” value [22] was “significantly increased”. The passive permeability [23] was “high”, the “resistant clones recovered after selection” value [24] was “none” and the “IC50 fold-shift … to cells without L884P” value [25] was 2–3 fold. The IC50 [26] was about 100 nM, the “activity against RET in the cellular setting” value [27] was “not corroborated” and the “BCR-ABL inhibition compared with BBT594” value [28] was “significantly reduced”. The “activity against ABL in the cellular setting” value [29] was “not corroborated”, the pSTAT5 in spleens ([30]; 30 mg/kg/day, 6 days) was “almost complete loss” and the “peripheral WBC counts compared to control animals” value ([30]; 30 mg/kg/day, 6 days) was “lower”. The “splenomegaly compared to control animals” value ([30]; 30 mg/kg/day, 6 days) was “reduced splenomegaly”, the “overall survival compared to control animals” value ([30]; 25 days of treatment) was “markedly improved” and the “concentration within the spleen” value ([31]; 2 hr after dosing) was 4.3 nmol/g. For the same compound, the “drug level within the spleen” value ([31]; 6 hr after dosing) was under 1 nmol/g and the “potency in JAK2-driven cellular assays” value [32] was “excellent potency”.

In the case of `Fc1cc(-c2cccc3ncc(-c4cnn(C5CCNCC5)c4)nc23)cc(F)c1CN1CCOCC1` [BSK805], the “JAK2 activation loop phosphorylation” value [1] is reported as “hyperphosphorylation”, the “IC50 fold-shift … to cells without L884P” value [17] is reported as “minimal effects” and the IC50 [26] is reported as over 2000 nM.

In the case of `CC(=O)Nc1cc(Oc2ccc3c(c2)CCN3C(=O)Nc2ccc(CN3CCN(C)CC3)c(C(F)(F)F)c2)ncn1` [BBT594], the “JAK2 activation loop phosphorylation” value [1] is reported as “suppressed JAK2 phosphorylation”, the “suppressive effects on pJAK2, pSTAT5, and c-Myc in presence of L884P” value [7] is reported as “abrogated” and the apoptosis ex vivo [2] is reported as “induced apoptosis”. For the same compound, the proliferation ex vivo [2] was “consistently blocked proliferation”, the “IC50 fold-shift … to cells without L884P” value [17] was “approximately 11 fold” and the “resistant clones recovered after selection” value [24] was “Over 30 clones”. The “IC50 fold-shift … to cells without L884P” value [25] was 2–3 fold and the IC50 [26] was about 100 nM.

In the case of `C[C@@H]1CN(c2ccc(Nc3ncc4ccn(-c5cc(F)c(CN6CCOCC6)c(F)c5)c4n3)cc2)C[C@H](C)N1` [BVB808], the “JAK2 activation loop phosphorylation” value [1] is reported as “hyperphosphorylation”, the “IC50 fold-shift … to cells without L884P” value [17] is reported as “minimal effects” and the IC50 [26] is reported as over 2000 nM.

Source: publication PMC4505625 (Cancer cell, 2015)
